{"source": "paper PMC6017115", "about": "“Inhibitory Effect of Sauchinone on UDP-Glucuronosyltransferase (UGT) 2B7 Activity” (Molecules : A Journal of Synthetic Chemistry and Natural …, 2018)", "type_in_all_cases": "in vitro ADME", "key": {"UGT1A4": {"target": "T1, UGT1A4 (Homo sapiens, UniProt P22310)", "T1 construct": "The reaction mixture containing 0.25 mg/mL protein of HLM; tissue Corning Life Sciences 452156; host or cells: pooled human liver microsomes, 50 donors", "T1 sequence (P22310 29-534)": "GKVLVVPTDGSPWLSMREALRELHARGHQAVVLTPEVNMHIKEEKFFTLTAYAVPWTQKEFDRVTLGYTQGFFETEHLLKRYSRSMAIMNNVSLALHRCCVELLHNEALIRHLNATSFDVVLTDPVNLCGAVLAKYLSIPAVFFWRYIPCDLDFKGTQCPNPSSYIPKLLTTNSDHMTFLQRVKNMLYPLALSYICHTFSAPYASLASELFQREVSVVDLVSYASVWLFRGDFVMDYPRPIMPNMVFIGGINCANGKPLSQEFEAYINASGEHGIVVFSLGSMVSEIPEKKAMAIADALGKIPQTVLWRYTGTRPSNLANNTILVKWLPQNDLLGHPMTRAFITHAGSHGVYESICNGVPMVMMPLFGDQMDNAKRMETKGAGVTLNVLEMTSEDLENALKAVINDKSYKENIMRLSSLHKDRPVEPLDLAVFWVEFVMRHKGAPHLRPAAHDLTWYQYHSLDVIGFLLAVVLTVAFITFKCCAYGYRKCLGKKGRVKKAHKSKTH", "test": "Inhibition of UGT1A4 (trifluoperazine glucuronidation) in human liver microsomes", "conditions": "human liver microsomes", "protocol": "(§1) Their IC50 values were compared to that of sauchinone. […] UGT-mediated activities in the presence of sauchinone as an inhibitor were expressed as percentages of corresponding control values (in absence of sauchinone). From percentages of control activity versus inhibitor concentrations, a sigmoid shaped curve was fitted to the data and IC50 as an enzyme inhibition parameter was calculated by fitting the Hill equation to the data using GraphPad Prism 5 (GraphPad Software Inc., San Diego, CA, USA)."}, "UGT1A6": {"target": "T2, UGT1A6 (Homo sapiens, UniProt P19224)", "T2 construct": "tissue Corning Life Sciences 452156; host or cells: pooled human liver microsomes", "T2 sequence (P19224 27-532)": "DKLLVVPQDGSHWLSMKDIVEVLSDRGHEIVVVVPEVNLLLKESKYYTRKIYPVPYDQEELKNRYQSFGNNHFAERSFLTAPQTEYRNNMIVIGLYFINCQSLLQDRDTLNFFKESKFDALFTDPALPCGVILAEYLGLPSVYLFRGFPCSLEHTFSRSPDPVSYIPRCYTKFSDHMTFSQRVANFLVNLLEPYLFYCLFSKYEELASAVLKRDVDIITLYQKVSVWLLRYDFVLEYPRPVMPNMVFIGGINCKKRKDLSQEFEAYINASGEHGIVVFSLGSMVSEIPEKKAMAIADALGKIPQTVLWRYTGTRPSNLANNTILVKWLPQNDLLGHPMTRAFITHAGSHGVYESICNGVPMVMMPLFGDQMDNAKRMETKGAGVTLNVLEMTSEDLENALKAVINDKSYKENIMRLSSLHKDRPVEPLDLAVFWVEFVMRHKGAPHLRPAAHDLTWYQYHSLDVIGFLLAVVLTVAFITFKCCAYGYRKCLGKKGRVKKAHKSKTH", "test": "Inhibition of UGT1A6 (serotonin glucuronidation) in human liver microsomes", "protocol": "as §1"}, "UGT1A9": {"target": "T3, UGT1A9 (Homo sapiens, UniProt O60656)", "T3 construct": "The reaction mixture containing 0.25 mg/mL protein of HLM; tissue Corning Life Sciences 452156; host or cells: pooled human liver microsomes, 50 donors", "T3 sequence (O60656 26-530)": "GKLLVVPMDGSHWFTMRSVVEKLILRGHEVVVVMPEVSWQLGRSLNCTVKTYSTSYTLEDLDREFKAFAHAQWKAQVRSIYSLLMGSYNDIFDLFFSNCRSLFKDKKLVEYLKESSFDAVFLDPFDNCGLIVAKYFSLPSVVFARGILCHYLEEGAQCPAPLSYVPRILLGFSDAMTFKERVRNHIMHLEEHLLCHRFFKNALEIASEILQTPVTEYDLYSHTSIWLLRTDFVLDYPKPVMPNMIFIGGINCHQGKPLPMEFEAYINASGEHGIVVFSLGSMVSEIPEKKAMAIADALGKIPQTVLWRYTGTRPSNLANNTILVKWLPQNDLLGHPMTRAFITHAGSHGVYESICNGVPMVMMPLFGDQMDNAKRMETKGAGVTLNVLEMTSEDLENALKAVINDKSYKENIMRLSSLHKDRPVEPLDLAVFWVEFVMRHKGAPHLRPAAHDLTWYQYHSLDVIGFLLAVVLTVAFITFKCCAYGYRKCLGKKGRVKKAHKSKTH", "test": "Inhibition of UGT1A9 (propofol glucuronidation) in human liver microsomes", "protocol": "as §1"}, "Ugt1a1": {"target": "T4, Ugt1a1 (Mus musculus, UniProt Q63886)", "T4 construct": "from tissue; host or cells: mouse liver microsomes prepared in house", "T4 sequence (Q63886 30-535)": "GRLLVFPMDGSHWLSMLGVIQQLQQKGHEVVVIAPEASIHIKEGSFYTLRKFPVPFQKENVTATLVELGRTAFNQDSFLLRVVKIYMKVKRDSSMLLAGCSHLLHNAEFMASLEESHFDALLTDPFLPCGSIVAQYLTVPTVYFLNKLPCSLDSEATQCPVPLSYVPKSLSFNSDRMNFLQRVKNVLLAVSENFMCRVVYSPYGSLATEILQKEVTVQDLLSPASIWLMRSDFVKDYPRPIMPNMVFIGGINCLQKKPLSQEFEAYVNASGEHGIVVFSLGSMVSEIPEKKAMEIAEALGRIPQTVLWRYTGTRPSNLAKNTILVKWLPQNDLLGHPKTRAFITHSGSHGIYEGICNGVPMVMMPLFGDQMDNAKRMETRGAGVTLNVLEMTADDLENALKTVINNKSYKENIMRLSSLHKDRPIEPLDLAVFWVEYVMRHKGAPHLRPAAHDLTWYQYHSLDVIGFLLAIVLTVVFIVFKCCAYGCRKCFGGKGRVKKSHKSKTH", "test": "Inhibition of Ugt1a1 (β-estradiol) in mice liver microsomes", "conditions": "pH 7.6, probe β-estradiol (10 μM, in UGT substrate cocktail), read-out: IC50 of Ugt1a1-catalyzed β-estradiol", "protocol": "Their IC50 values were compared to that of sauchinone. […] Mice were sacrificed and then livers were removed and rinsed with saline. After weighing the livers, they were homogenized with a four-fold volume of ice-cold homogenizing buffer (0.154 M KCl, 50 mM Tris-base, 1 mM EDTA, pH 7.4). After centrifugation for 35 min at 9000× g and 4 °C, the supernatants were centrifuged for 95 min at 100,000× g and at 4 °C. The supernatants were discarded and the pellets were homogenized again with ice-cold homogenizing buffer. These aliquots were stored at −80 °C. The subsequent process to evaluate the inhibitory effects of sauchinone on UGT activities in MLM was the same as those using HLM. UGT-mediated activities in the presence of sauchinone as an inhibitor were expressed as percentages of corresponding control values (in absence of sauchinone). From percentages of control activity versus inhibitor concentrations, a sigmoid shaped curve was fitted to the data and IC50 as an enzyme inhibition parameter was calculated by fitting the Hill equation to the data using GraphPad Prism 5 (GraphPad Software Inc., San Diego, CA, USA)."}, "Ugt2b7": {"test_system": "Ugt2b7", "test": "Ki for Ugt2b7 in mouse liver microsomes", "conditions": "our unpublished data"}}}
{"smiles": "C[C@@H]1[C@H]2c3cc4c(cc3O[C@@]35OCOC3=CC(=O)[C@H](C[C@H]1C)[C@@H]25)OCO4", "note": "[Sauchinone]", "values": [{"measurement": "inhibitory effect on UGT1A4 activity", "setting": "UGT1A4; sauchinone up to 200 μM", "result": "negligible inhibitory effect"}, {"measurement": "IC50", "setting": "UGT1A4; substrate 40 μM trifluoperazine, mean (minimum–maximum), read-out: IC50 for inhibition of UGT1A4", "result": "> 200", "unit": "µM"}, {"measurement": "IC50", "setting": "UGT1A6", "result": 0.758, "unit": "µM"}, {"measurement": "inhibitory effect on UGT1A9 activity", "setting": "UGT1A9; sauchinone up to 200 μM", "result": "negligible inhibitory effect"}, {"measurement": "IC50", "setting": "UGT1A9; substrate 100 μM propofol, mean (minimum–maximum)", "result": "> 200", "unit": "µM"}, {"measurement": "IC50", "setting": "Ugt1a1", "result": 152, "unit": "µM"}, {"measurement": "Ki", "setting": "Ugt2b7", "result": 3.34, "unit": "µM"}]}
